Test results reported in patent publication US11819492B2, “Natural product derivatives for inhibiting cellular necroptosis, ferroptosis and oxytosis” (Institut National de la Sante et de la Recherche Medicale …, priority 2016, dated 2023).

Experiments:
[1] = test system: Human Peripheral Blood Lymphocytes (hPBLs); assay: Cytotoxicity on human peripheral blood lymphocytes (MTS); assay type: cell-based; details: 0-100 μM tested, 24 hours, FIG. 4
Protocol: Viability was assessed by cell proliferation assay (MTS). % of cell viability was determined using the CellTiter 96® AQueous Non-Radioactive Cell Proliferation Assay (Promega). Data represent the quantitative analysis of six independent experiments with means±SD (n=6 individuals).

[2] = test system: Porcine LLC-PK1 cells (kidney proximal tubule cell line); assay: Cold-induced cell death (cold storage), MTS viability assay; assay type: cell-based; details: 24 hours at 4° C.
Protocol: At it was previously shown (Ahlenstiel et al. Transplantation […], 81(2), 231-239), cold storage induces a cell-death process. Porcine LLC-PK1 cells (kidney proximal tubule cell line) were stored at approximately 4° C. during 24 hours with or without the tested molecules. […] Cells were then incubated at 37° C., 5% CO2 before performing MTS viability assay. Cell viability was monitored using CellTiter 96® AQueous Non-Radioactive Cell Proliferation Assay (Promega, Fitchburg, WI, USA), based on the water-soluble tetrazolium compound MTS (3-[4,5-dimethylthiazol-2-yl]-5-[3-carboxymethoxy-phenyl]-2-[4-sulfophenyl]-2H-tetrazolium, inner salt) according to the manufacturers instructions.

[3] = target: T1, Human RIPK1 full length GST-tagged (Homo sapiens, UniProt Q13546); assay: RIPK1 autophosphorylation assay; assay type: biochemical
T1 construct: Human RIPK1 full length GST-tagged; made in house; host or cells: Sf9 insect cells (baculovirus, Bac-to-Bac)
T1 sequence (Q13546 1-671): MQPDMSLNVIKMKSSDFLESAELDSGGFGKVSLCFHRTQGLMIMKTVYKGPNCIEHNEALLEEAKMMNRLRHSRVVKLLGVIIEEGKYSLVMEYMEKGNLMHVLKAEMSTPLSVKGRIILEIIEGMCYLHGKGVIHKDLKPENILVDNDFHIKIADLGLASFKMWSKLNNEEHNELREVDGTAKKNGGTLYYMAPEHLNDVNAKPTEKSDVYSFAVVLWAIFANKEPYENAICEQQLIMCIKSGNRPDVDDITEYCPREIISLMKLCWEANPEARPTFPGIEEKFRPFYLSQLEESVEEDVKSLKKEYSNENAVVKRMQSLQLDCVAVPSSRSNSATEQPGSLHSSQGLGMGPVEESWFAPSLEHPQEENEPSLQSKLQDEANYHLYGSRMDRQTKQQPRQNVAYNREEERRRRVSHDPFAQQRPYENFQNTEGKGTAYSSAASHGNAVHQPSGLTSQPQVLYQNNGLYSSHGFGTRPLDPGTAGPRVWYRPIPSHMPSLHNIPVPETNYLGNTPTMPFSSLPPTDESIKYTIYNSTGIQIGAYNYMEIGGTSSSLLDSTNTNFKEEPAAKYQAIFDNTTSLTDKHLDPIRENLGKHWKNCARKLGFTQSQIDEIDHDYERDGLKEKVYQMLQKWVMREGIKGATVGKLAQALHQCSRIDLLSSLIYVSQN
Protocol: RIPK1 Autophosphorylation Assay: • Human RIPK1 full length GST-tagged was baculovirally expressed in Sf9 cells according to manufacturer's instructions (Bac-to-Bac expression system, Invitrogen) and purified using gluthation-sepharose beads (GE Healthcare). The elution was made in 50 mM Tris-HCl, pH 8.0 buffer supplemented with 30 mM reduced gluthathione (Sigma). The protocol used to detect the enzymatic activity is adapted from Miao and Degterev (Methods Mol. Biol. 2009, 559, 79-93). Kinase reaction was initiated mixing 5 μl of eluted RIPK1, 5 μl of 3X kinase reaction buffer (5 mM MOPS pH 7.2, 2.5 mM β-glycerophosphate, 4 mM MgCl2, 2.5 mM MnCl2, 1 mM EGTA, 0.4 mM EDTA, 50 μg/ml BSA, 0.05 mM DTT), 2 μl H2O and 3 μl of the tested molecule. The mixture was kept on ice for 10 minutes. […] ATP. The ATP solution and the tested inhibitor were added to the kinase and incubated for 30 minutes at 30° C. To stop the enzymatic reaction, 5 μl of loading buffer were added and solution was heated for 3 minutes at 95° C. 25 μl of each reaction were loaded per well in pre-cast NuPage 12% Bis-Tris gel (Life Technology). Necrostatin-1, a well-described inhibitor of RIPK1, was used as an internal control. Coomassie staining was performed in order to estimate the total amount of protein loaded on polyacrylamide gel. […]

[4] = test system: Murine hippocampal neuronal cell line HT22; assay: Erastin-induced ferroptosis in HT22 cells, MTS viability assay; assay type: cell-based; details: 1 μM erastin, 24 hours, FIG. 14
Protocol: Murine hippocampal neuronal cell line HT22 was treated with 10 mM of (L)-glutamate (oxytosis initiator) or 1 μM erastin (ferroptosis initiator).
Cells were then incubated at 37° C., 5% CO2 for 24 hours before performing MTS viability assay. Cell viability was monitored using CellTiter 96® AQueous Non-Radioactive Cell Proliferation Assay (Promega, Fitchburg, WI, USA), based on the water-soluble tetrazolium compound MTS (3-[4,5-dimethylthiazol-2-yl]-5-[3-carboxymethoxy-phenyl]-2-[4-sulfophenyl]-2H-tetrazolium, inner salt) according to the manufacturers instructions.

[5] = test system: Human endothelial cells (HAEC); assay: In vitro hypoxic cold storage viability assay; assay type: cell-based
Protocol: Human endothelial cells (HAEC) were grown to confluence, then synchronized using depleted media for 16h. For hypothermia/hypoxia, cells were washed twice with PBS then incubated in University of Wisconsin (UW) solution in 95% N2/5% CO2 atmosphere at 4° C. for 24 hours. […] Shown are mean+/−SD, n=3. UW are cells treated only with UW preservation solution. Controls are cells not subjected to this protocol (cells are continuously oxygenated) but cultivated for the same amount of time in regular culture conditions. […] It should be noted that the hypoxic cold storage mimics the process occurring during graft preservation.

SMILES: COc1cc(O)c2c(c1)OC(O)(c1ccc(OCc3ccccc3)cc1)CC2=O (stereo not drawn) [compound 1]
- concentration up to which not cytotoxic towards hPBLs [1]: ≤ 20 µM
- protection from death induced by cold storage ([2]; 0.01-50.00 μM, FIGS. 16a, 16b): protects cells from death induced by cold storage
- concentration of maximal activity against cold-induced cell death [2]: 504
- inhibition of RIPK1 autophosphorylation ([3]; [γ-32P] ATP, 30 minutes at 30° C., FIG. 6): inhibits the RIPK1 autophosphorylation in a dose-dependent way
- effect of high ATP concentrations on inhibition of RIPK1 auto-phosphorylation ([3]; high ATP concentrations (e.g. 1 mM), FIG. 7): not affected
- concentration that protects cells from death induced by erastin [4]: > 25 µM
- cell survival, treatment during hypoxia ([5]; UW solution, 95% N2/5% CO2, 4° C., 24 hours, FIG. 10): measurable benefits on cell survival
- cell survival, treatment during hypoxia and reoxygenation ([5]; UW solution, 95% N2/5% CO2, 4° C., 24 hours, then reoxygenation, FIG. 11): measurable benefits on cell survival
- effect on cell survival compared to the control inhibitors of necroptosis (Nec-1 and Nec-1s) ([5]; hypoxic cold storage): significantly better
